pIC50, pKd, pKi: −log10 of the molar value. Values belong to the molecule of their own block, whether it stands above or below them. Where a SMILES comes first, the peptide text is derived from it. Bridges are numbered along the chain shown (N, C = ends).
What was measured:
[1] = system: Mus musculus; test: In vivo rescue of F508del-CFTR activity in cystic fibrosis mouse model assessed as measuring salivary secretion at 5 mg/kg/day, ip qd for 2 days relative to control; format: functional; details: time 2 day
[2] = Ex vivo inhibition of PARP-1 in ileum of cystic fibrosis mouse model assessed as rescue of F508del-CFTR activity at 1 nM treated for 4 hrs in presence of forskolin/genistein relative to control; format: functional; design: scale not given: the % may be the effect or the level left
[3] = Rescue of F508del-CFTR residual channel activity in hamster BHK cells assessed as fold increase in forskolin/genistein-induced iodide efflux measured every minute for 10 mins
[4] = target: T1, Protein mono-ADP-ribosyltransferase PARP16 (Homo sapiens, UniProt Q8N5Y8); test: Inhibition of PARP16 (unknown origin) using 6xHis-tagged IRE-1 as substrate incubated for 1 hr by chemiluminescence assay
T1 sequence (Q8N5Y8 whole entry): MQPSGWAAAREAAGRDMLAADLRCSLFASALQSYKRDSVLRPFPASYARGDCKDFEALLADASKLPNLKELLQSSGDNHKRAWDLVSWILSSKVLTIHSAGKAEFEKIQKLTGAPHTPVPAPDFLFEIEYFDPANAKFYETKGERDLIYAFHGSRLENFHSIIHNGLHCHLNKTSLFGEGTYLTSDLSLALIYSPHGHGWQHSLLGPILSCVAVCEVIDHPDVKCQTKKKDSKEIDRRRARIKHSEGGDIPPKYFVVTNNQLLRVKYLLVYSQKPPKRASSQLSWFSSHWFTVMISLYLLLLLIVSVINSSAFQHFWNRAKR

[5] = target: T2, Protein mono-ADP-ribosyltransferase PARP3 (Homo sapiens, UniProt Q9Y6F1); test: Inhibition of recombinant human PARP3 expressed in baculovirus expression system using anchored-histone proteins as substrate incubated for 1 hr by chemiluminescence assay
T2 sequence (Q9Y6F1 whole entry): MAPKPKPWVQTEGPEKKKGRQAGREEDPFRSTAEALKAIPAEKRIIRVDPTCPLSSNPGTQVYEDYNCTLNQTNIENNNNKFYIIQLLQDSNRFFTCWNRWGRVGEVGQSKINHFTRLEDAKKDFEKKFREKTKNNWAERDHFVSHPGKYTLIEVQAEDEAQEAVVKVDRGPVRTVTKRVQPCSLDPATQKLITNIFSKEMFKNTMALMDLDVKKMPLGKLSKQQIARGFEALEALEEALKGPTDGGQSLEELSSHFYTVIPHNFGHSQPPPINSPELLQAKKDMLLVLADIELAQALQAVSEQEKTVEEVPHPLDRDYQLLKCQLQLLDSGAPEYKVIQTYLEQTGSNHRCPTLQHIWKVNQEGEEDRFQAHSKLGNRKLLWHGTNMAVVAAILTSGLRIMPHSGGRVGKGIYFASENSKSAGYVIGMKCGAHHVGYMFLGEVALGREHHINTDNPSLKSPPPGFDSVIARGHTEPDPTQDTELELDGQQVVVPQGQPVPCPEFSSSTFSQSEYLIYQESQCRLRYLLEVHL

[6] = system: Cystic fibrosis transmembrane conductance regulator (Homo sapiens), P13569 [F508del]; test: Stabilization of F508del-CFTR in human CFBE41o- cells assessed as OUTB1 occupancy by Proteomic analysis relative to control; format: cell-based
[7] = system: Cystic fibrosis transmembrane conductance regulator (Homo sapiens), P13569 [F508del]; test: Modulation of F508del-CFTR mutant transfected in human HEK293 cells assessed as fold increase in level of ER glycosylated form of F508del-CFTR at 30 uM treated for 24 hrs by immunoblot assay; format: cell-based; details: filed as modulator
[8] = target: T3, Golgi-associated PDZ and coiled-coil motif-containing protein (Homo sapiens, UniProt Q9HD26); test: Binding affinity to CAL PDZ domain (unknown origin) assessed as dissociation constant in presence of tris(carboxylethyl)phosphine by fluorescence anisotropy analysis
[9] = Inhibition of Hsp40-stimulated yeast Hsp70 ATPase activity assessed as inhibition constant by single-turnover assay; design: species or system Saccharomyces cerevisiae
[10] = target: T3, Golgi-associated PDZ and coiled-coil motif-containing protein; test: Inhibition of CAL PDZ domain (unknown origin) assessed as inhibition constant by fluorescence polarization competition assay
[11] = system: Cystic fibrosis transmembrane conductance regulator (Homo sapiens), P13569 [F508del]; test: Modulation of F508del-CFTR mutant in HBE cells assessed as fold increase in CFTR mRNA levels by […]; format: cell-based; details: filed as modulator
[12] = species on record: Homo sapiens; test: Inhibition of Hsp70 ATPase activity (unknown origin) at 200 uM incubated for 3 hrs in presence of ATP by malachite green assay relative to control

Sequence of Cystic fibrosis transmembrane conductance regulator (Homo sapiens), P13569 [F508del] (P13569 as listed by the source): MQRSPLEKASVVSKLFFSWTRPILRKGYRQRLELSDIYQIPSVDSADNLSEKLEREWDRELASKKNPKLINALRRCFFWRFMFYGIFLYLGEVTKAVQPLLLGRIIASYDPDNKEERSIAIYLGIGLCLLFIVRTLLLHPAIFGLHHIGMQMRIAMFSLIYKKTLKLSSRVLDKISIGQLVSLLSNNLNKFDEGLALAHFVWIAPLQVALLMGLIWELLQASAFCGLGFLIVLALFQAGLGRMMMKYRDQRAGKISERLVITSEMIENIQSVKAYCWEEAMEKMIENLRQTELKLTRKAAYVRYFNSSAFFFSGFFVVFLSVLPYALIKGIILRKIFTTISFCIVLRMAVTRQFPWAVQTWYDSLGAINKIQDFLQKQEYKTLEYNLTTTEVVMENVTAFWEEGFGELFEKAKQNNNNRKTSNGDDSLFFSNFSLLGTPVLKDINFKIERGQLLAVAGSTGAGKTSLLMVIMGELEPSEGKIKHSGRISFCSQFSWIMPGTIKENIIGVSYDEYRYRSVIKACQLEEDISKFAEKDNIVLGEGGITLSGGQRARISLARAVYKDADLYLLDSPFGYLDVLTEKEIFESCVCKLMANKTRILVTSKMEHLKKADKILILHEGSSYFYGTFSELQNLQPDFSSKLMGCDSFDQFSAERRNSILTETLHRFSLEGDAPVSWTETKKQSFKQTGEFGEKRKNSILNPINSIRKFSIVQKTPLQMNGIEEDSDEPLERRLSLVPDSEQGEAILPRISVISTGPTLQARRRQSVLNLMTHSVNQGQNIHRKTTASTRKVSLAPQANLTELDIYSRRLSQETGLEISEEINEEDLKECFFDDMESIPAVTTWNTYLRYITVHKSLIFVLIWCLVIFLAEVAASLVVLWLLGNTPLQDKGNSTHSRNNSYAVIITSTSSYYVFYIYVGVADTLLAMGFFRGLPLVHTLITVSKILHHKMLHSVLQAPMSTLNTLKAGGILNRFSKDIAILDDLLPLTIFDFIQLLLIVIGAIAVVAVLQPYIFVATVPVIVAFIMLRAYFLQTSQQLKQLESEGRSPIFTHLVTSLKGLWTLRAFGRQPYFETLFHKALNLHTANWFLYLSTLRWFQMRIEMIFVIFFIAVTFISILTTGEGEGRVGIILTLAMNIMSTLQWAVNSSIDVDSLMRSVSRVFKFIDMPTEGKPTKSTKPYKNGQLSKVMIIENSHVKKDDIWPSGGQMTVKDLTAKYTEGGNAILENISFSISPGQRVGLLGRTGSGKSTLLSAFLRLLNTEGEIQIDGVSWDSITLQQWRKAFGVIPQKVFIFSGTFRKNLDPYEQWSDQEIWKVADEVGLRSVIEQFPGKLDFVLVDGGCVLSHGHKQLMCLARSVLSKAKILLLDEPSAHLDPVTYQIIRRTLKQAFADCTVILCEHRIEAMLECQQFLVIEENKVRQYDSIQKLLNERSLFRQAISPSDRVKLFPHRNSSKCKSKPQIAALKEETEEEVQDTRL

Structure (SMILES): C[C@]1(c2nc3c(C(N)=O)cccc3[nH]2)CCCN1 [VELIPARIB]
Activity [1]: 7.8%
Activity [2]: 7%

Structure (SMILES): N#CCc1nnc(-c2ccccn2)[nH]1
fold change (FC) [3]: 2.5

pIC50 [4]: 3.53
pIC50 [5]: 5.51
Structure (SMILES): O=C1NC[C@@H](c2ccccc2)[C@@H](O)c2ccccc21

Activity [6]: 60%
Structure (SMILES): C=CC(=O)N1CCN(c2ccc(CCC(=O)NCCCCCNC(=O)c3cccc(-c4nc(NC(=O)C5(c6ccc7c(c6)OC(F)(F)O7)CC5)ccc4C)c3)o2)C(=O)C1

fold change (FC) [7]: 2.1
Structure (SMILES): CC1=C(C(=O)OCc2ccccc2)C(c2ccc(Cl)cc2Cl)NC(=O)N1CCCC(=O)O (stereo not given)

pKd [8]: 6.31
Structure (SMILES): CC(=O)N[C@H]1CSSC[C@@H](C(=O)N[C@H](C(=O)N[C@@H](CCCNC(=N)N)C(=O)N[C@H](C(=O)O)C(C)C)[C@@H](C)O)NC(=O)[C@H](CCC(N)=O)NC(=O)[C@H](Cc2c[nH]c3ccccc23)NC(=O)[C@H](Cc2ccccc2)NC(=O)[C@H](CCCNC(=N)N)NC(=O)[C@H](CCCNC(=N)N)NC(=O)[C@H](CCCNC(=N)N)NC(=O)[C@H](CCCNC(=N)N)NC1=O (Ac-CRRRRFWQCTRV-OH; disulfide 1-9)

pIC50 [4]: 6.44
pIC50 [5]: 4.13
Structure (SMILES): O=C1NC[C@@H](c2ccccn2)[C@@H](O)c2cc(Cl)c(Cl)cc21

pKi [9]: 5.00
Structure (SMILES): CCCCCCCCCCCCC/C=C/[C@@H](O)[C@H](COC1O[C@H](CO)[C@H](O)[C@H](OS(=O)(=O)O)[C@H]1O)NC(=O)CC12CC3CC(CC(C3)C1)C2 (stereo not given in full)

pKi [10]: 5.64
Structure (SMILES): CC(=O)N[C@@H](Cc1c[nH]c2ccccc12)C(=O)N[C@@H](CCC(N)=O)C(=O)N[C@H](C(=O)N[C@H](C(=O)N[C@@H](CCCNC(=N)N)C(=O)N[C@H](C(=O)O)C(C)C)[C@@H](C)O)C(C)C (Ac-WQVTRV-OH)

Structure (SMILES): CCN(CC)c1ccc(N/N=C2\C(=O)C=Cc3ccccc32)cc1
fold change (FC) [3]: 2.5

fold change (FC) [11]: 1.5
Structure (SMILES): O=C(NCCCn1nncc1CO)c1cc(-c2ccccc2)on1

inhibition [12]: 55%
Structure (SMILES): COc1ccc(-c2nc(-c3cc(C(F)(F)F)cc(C(F)(F)F)c3)n(Cc3ccc(C(N)=O)cc3)c2-c2ccc(OC)cc2)cc1

Source: ChEMBL document CHEMBL5131510, “Proteostasis Regulators in Cystic Fibrosis: Current Development and Future Perspectives” (J Med Chem, 2022)
